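Exposure lasted 48 hours, with cells grown in 96-well plates and compounds tested at five concentrations. Abbreviation: GI50, concentration required for 50% inhibition of growth. TGI is the concentration that stops growth completely.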
Assays:
Experiment in all cases: DTP human tumour cell line panel, 48 h
[1] = tested on: DU-145 prostate
[2] = tested on: K-562 leukemia
[3] = tested on: MALME-3M melanoma
[4] = tested on: MDA-N
[5] = tested on: NCI/ADR-RES ovarian
[6] = tested on: SR leukemia
[7] = tested on: SW-620 colon
[8] = tested on: UACC-257 melanoma
[9] = tested on: UACC-62 melanoma
[10] = tested on: SK-OV-3 ovarian

| Compound | TGI [1] | TGI [2] | TGI [3] | TGI [4] | TGI [5] | TGI [6] | TGI [7] | TGI [8] | TGI [9] | GI50 [1] | GI50 [2] | GI50 [3] | GI50 [5] | GI50 [10] | TGI [10] | GI50 [6] | GI50 [7] | GI50 [8] | GI50 [9] |
| --- | --- | --- | --- | --- | --- | --- | --- | --- | --- | --- | --- | --- | --- | --- | --- | --- | --- | --- | --- |
| Cc1cc(S(=O)(=O)Nc2nc3ccccc3n2-c2ccccc2)c(S)cc1Cl | > 100 µM | > 100 µM | > 100 µM | > 100 µM | > 100 µM | > 100 µM | > 100 µM | > 100 µM | > 100 µM |  |  |  |  |  |  |  |  |  |  |
| COc1cc(OC)cc(-c2n/c(=C\c3c(O)[nH]c4ccc(Cl)cc34)cc3c2=Nc2ccccc2-3)c1 | 6.88 µM | 6.29 µM | 44.7 µM |  | 10.8 µM | 5.59 µM | 8 µM | > 100 µM | 35.2 µM | 2.91 µM | 2.72 µM | 21.6 µM | 3.03 µM | 10.2 µM | 26 µM | 2.24 µM | 2.66 µM | > 100 µM | 16.9 µM |
| CC(C)(C)c1cc(C(=O)/C=C/c2ccn[nH]2)cc(C(C)(C)C)c1O | 7.52 µM | 10.3 µM | 20.2 µM |  | 16.1 µM | 3.61 µM | 6.27 µM | 11.2 µM | 8.37 µM |  |  |  |  |  | 31.7 µM |  |  |  |  |
| O=S1(=O)C(c2ccccc2)=C(O)c2ccccc21 | > 100 µM | > 100 µM | > 100 µM |  | > 100 µM |  | > 100 µM | > 100 µM | > 100 µM |  |  |  |  |  |  |  |  |  |  |
| COc1cc(C(c2cccc3ccccc23)N2C(=O)CCC2C(=O)NCc2ccccc2)cc(OC)c1OC (stereo not drawn) | > 100 µM |  | > 100 µM | > 100 µM | > 100 µM | > 100 µM | > 100 µM | > 100 µM | > 100 µM |  |  |  |  |  | > 100 µM |  |  |  |  |
| Nc1ccc(-c2nc3ccc(F)cc3s2)cc1 | 98.6 µM | > 100 µM | > 100 µM | > 100 µM | > 100 µM | > 100 µM | > 100 µM | > 100 µM | 31.3 µM |  |  |  |  |  |  |  |  |  |  |
| Oc1nc(N/N=C/c2ccccc2)[nH]c1/C=C1\C=Nc2ccccc21 | > 100 µM | > 100 µM | > 100 µM | > 100 µM | > 100 µM |  | > 100 µM | > 100 µM | > 100 µM |  |  |  |  |  | > 100 µM |  |  |  |  |
| CCNc1ncnc2c1nnn2CC | > 100 µM | > 100 µM | > 100 µM | > 100 µM | > 100 µM |  | > 100 µM | > 100 µM | > 100 µM |  |  |  |  |  | > 100 µM |  |  |  |  |
| O=C(N/N=C/c1ccc(Cl)cc1)c1cc(I)cc(I)c1O | > 100 µM | > 100 µM |  | > 100 µM | > 100 µM | > 100 µM | > 100 µM | > 100 µM |  |  |  |  |  |  | > 100 µM |  |  |  |  |
| Cc1c(C#N)c2nnn(-c3ccccc3)c(=O)n2c1-c1ccccc1 | 8.45 µM | 0.801 µM | > 100 µM |  | 14.6 µM | 19.3 µM | > 100 µM | > 100 µM | > 100 µM |  |  |  |  |  | > 29.5 µM |  |  |  |  |
| Cc1cc(C)c2c(=N)c3ccccc3n(CCCCCCO)c2n1 | 25.3 µM |  | 5.95 µM | 7.42 µM | 8.38 µM |  | > 36.1 µM | 15.8 µM | 8.89 µM |  |  |  |  |  | 18.5 µM |  |  |  |  |
| COc1cc(/C=C2\Cc3cc(OC)c(OC)cc3C2=O)cc(OC)c1 | > 100 µM | > 100 µM | > 100 µM | 39.2 µM | > 100 µM |  | > 100 µM | > 100 µM | > 89.4 µM |  |  |  |  |  | > 84.9 µM |  |  |  |  |
| OC(CCN1CCN(CCOC(c2ccccc2)c2ccccc2)CC1)c1ccc(Br)cc1 (stereo not drawn) | 32.4 µM |  | 24.4 µM | 22.9 µM | 21.9 µM |  | 44.5 µM | 12.6 µM | 22.8 µM |  |  |  |  |  | 27 µM |  |  |  |  |
| C[C@@H]1CC[C@@H](C)[C@](C)(CCc2ccoc2)C/C=C\C=C/1C(=O)O |  | > 50 µM | > 50 µM | > 50 µM | > 50 µM | > 50 µM | > 50 µM | > 50 µM | > 50 µM |  |  |  |  |  | > 50 µM |  |  |  |  |
| CN(C)Cc1cc(C(=O)/C=C/c2cccc(Cl)c2)cc(CN(C)C)c1O | 19.2 µM | 11.4 µM |  | 10.3 µM | > 100 µM | 6.93 µM | 17.5 µM | 19.9 µM | 22.3 µM |  |  |  |  |  |  |  |  |  |  |
| Cc1ccc(S(=O)(=O)c2ccc([N+](=O)[O-])o2)cc1 | 8.58 µM |  | 2.64 µM |  | 5.36 µM |  | 1.73 µM | 3.61 µM | 6.17 µM |  |  |  |  |  | 35.2 µM |  |  |  |  |
| COc1cccc(NC(=O)CC(=O)NNCC(=O)Nc2nnc(-c3ccc(N(CCC#N)S(=O)(=O)c4ccccc4)cc3)s2)c1 |  | > 100 µM | > 100 µM |  |  | > 100 µM | > 100 µM |  | > 100 µM |  |  |  |  |  | > 100 µM |  |  |  |  |

| Compound | TGI [1] | TGI [2] | TGI [3] | TGI [4] | TGI [5] | TGI [6] | TGI [7] | TGI [8] | TGI [9] | GI50 [1] | GI50 [2] | GI50 [3] | GI50 [5] | GI50 [10] | TGI [10] | GI50 [6] | GI50 [7] | GI50 [8] | GI50 [9] |
| --- | --- | --- | --- | --- | --- | --- | --- | --- | --- | --- | --- | --- | --- | --- | --- | --- | --- | --- | --- |
| COc1cc2c(cc1C)NC(=O)/C2=C\c1ccncc1 | 53.6 µM | > 100 µM | 32.1 µM |  | 10.7 µM | 8.04 µM | > 100 µM | 26.7 µM | 21.1 µM |  |  |  |  |  | 13.7 µM |  |  |  |  |
| N#CC12C(=O)N3C(=NC(c4ccccc4)NC3c3ccccc3)C1(C#N)C(c1ccccc1)NC1=C2CCCC1 (stereo not drawn) | > 100 µM | > 100 µM | > 100 µM | > 100 µM | > 100 µM |  | > 100 µM | > 100 µM | > 100 µM |  |  |  |  |  | > 100 µM |  |  |  |  |
| CN(C)C(=O)C(F)(F)C(c1ccc(Br)cc1)C1C(=O)N(C)C(=O)N(C)C1=O (stereo not drawn) | > 100 µM | > 100 µM |  |  | > 100 µM |  | > 100 µM | > 100 µM | > 100 µM |  |  |  |  |  | > 100 µM |  |  |  |  |
| Oc1ccc(Cl)cc1C1=N/C(=N\C/N=C2\N=C(c3cc(Cl)ccc3O)CC(c3ccccc3)N2)NC(c2ccccc2)C1 (stereo not drawn) | > 100 µM | > 100 µM |  | > 100 µM | > 100 µM | > 100 µM | > 100 µM | > 100 µM | > 100 µM |  |  |  |  |  | > 100 µM |  |  |  |  |
| CN1Cc2c(nc(-c3ccc(Br)cc3)c[n+]2[O-])N(C)C1 |  | > 100 µM | > 100 µM |  |  | > 100 µM | > 100 µM | > 100 µM |  |  |  |  |  |  | > 100 µM |  |  |  |  |
| CC(=O)O[C@H]1CN(S(=O)(=O)c2ccc(C)cc2)C[C@@H]1C1CCCCC1 | > 100 µM | > 100 µM |  | > 100 µM | 58.5 µM | > 100 µM | > 100 µM | 48.3 µM | 61.7 µM |  |  |  |  |  | > 100 µM |  |  |  |  |
| CCN1CCCC(Nc2cc(C)nc(/N=C(/N)Nc3ccc(Cl)c(Cl)c3)n2)C1 (stereo not drawn) | 15.3 µM | 0.558 µM | 4.02 µM | 3.16 µM | 8.58 µM | 2.88 µM |  |  | 3.31 µM |  |  |  |  |  | 5.24 µM |  |  |  |  |
| CNC(=S)N/N=C(\C)c1nc2ncccc2[nH]1 | > 100 µM | > 100 µM | > 100 µM | > 100 µM | 29.7 µM | > 100 µM | > 100 µM | > 100 µM |  |  |  |  |  |  | > 100 µM |  |  |  |  |
| O=c1[nH]cnc2sc(=S)c3c(c12)CCC3 | > 100 µM | 29.2 µM | 98.2 µM |  | > 100 µM | 35.5 µM | 49.2 µM | 94 µM | > 100 µM |  |  |  |  |  | > 100 µM |  |  |  |  |
| CSc1ncc2c(n1)-c1ccccc1OC2NC(C)(C)C (stereo not drawn) | > 100 µM | > 100 µM | > 100 µM |  |  | > 100 µM | > 100 µM | > 100 µM | > 100 µM |  |  |  |  |  | > 100 µM |  |  |  |  |
| N#Cc1c(Nc2nc3ccccc3s2)c2ccccc2n2c1nc1ccccc12 | > 100 µM |  | > 100 µM | > 100 µM | > 100 µM | > 100 µM | > 100 µM | > 100 µM | > 100 µM |  |  |  |  |  |  |  |  |  |  |
| C/C=C/[C@H]1O[C@@](O)([C@@H](C)[C@H](O)[C@H](C)[C@H]2OC(=O)/C(OC)=C/C(C)=C/[C@@H](C)[C@@H](O)[C@@H](CC)[C@@H](O)[C@H](C)C/C(C)=C/C=C/[C@@H]2OC)C[C@H](OC2CC(O)C(OC(N)=O)C(C)O2)[C@@H]1C (stereo partly drawn) | 21.6 µM | 0.772 µM | 0.73 µM |  | 26.8 µM |  | 15.3 µM | 0.568 µM | 13.2 µM |  |  |  |  |  | 25.4 µM |  |  |  |  |
| CCCCc1ccc(-n2sc3ncccc3c2=O)cc1 | > 100 µM |  | 14.9 µM | 29.3 µM | 43.9 µM | 60.4 µM | 72.1 µM | 43.7 µM | 43.9 µM |  |  |  |  |  | 90.5 µM |  |  |  |  |
| COc1ccc2c(c1OC)C(=O)O[C@@H]2[C@H]1c2cc3c(cc2CCN1C)OCO3 | > 100 µM | > 100 µM |  | > 100 µM | > 100 µM | > 100 µM | > 100 µM | > 100 µM | > 100 µM |  |  |  |  |  | > 100 µM |  |  |  |  |
| COc1cc(OC)c2c(O)c(S(=O)(=O)c3ccc(C)cc3)c(=O)oc2c1 | > 100 µM | > 100 µM | > 100 µM |  | > 100 µM | > 100 µM | > 100 µM | > 100 µM | > 100 µM |  |  |  |  |  | > 100 µM |  |  |  |  |
| Cc1ccc(SC[C@@]2(C(F)F)NC(=O)NC2=O)cc1 | > 100 µM | > 100 µM | > 100 µM |  | > 100 µM | > 100 µM | > 100 µM | > 100 µM | > 100 µM |  |  |  |  |  | > 100 µM |  |  |  |  |
| C=CCC1(CC)C(=O)NC(=O)NC1=O |  | > 100 µM | > 100 µM |  |  | > 100 µM | > 100 µM | > 100 µM | > 100 µM |  |  |  |  |  | > 100 µM |  |  |  |  |
